Values of other authors as cited in patent US9974804B1, “Strontium-based composition, product, and method of using the same to control progression of osteoarthritis osteoporosis and tooth decay” (priority 2017, dated 2018).

How the values were obtained:
[1] = supplemented in the human diet
[2] = osteoporosis; daily doses of 6.4 grams for months to years
[3] = three-year daily use, compared to the control group
[4] = compared to placebo group

## O=C([O-])[O-].[Sr+2] [strontium carbonate]
[1]
  tolerability / toxicity: well tolerated without reported toxicity

## CC(O)C(=O)[O-].CC(O)C(=O)[O-].[Sr+2] (stereo not drawn) [strontium lactate]
[2]
  marked subjective improvement: 84%

## N#Cc1c(N(CC(=O)[O-])CC(=O)[O-])sc(C(=O)[O-])c1CC(=O)[O-].[Sr+2].[Sr+2] [strontium ranelate]
[3]
  reduction in hip fracture: 36%
  reduction in nonvertebral fracture: 19%
  reduction in vertebral fracture: ~49%
[4]
  increase in osteoblast activity parameters: ~10%
  trabecular and cortical bone thickness: 14-18%

## [Sr+2] [strontium]
After strontium supplementation is discontinued
  time after which fifty percent of bone strontium disappears: 10 weeks
Renal tubule excretion
  daily renal clearance relative to that of calcium: about three
